Drawing on ChEMBL document CHEMBL5357065, “Neuropharmacological Advances: Harnessing 5-HT2A Receptor Modulators and Psychoplastogens” (ACS Med Chem Lett, 2024), this text covers Emax and Activity for ten compounds.

Active and inactive are the calls of the source. The calls are words filed in the database; no cut-off is given here.

Holding throughout (format): functional, cell-based
Test [1] deals with 5-hydroxytryptamine receptor 2A (Homo sapiens) (UniProt P28223). Description: Positive allosteric modulation of human 5-HT2A receptor stably expressed in CHO cells assessed as modulation of 5-HT induced intracellular Ca2+ release by measuring maximal efficacy at 1 uM preincubated for 15 mins followed by 5-HT addition and measured by FLIPR analysis relative to control. As to conditions: filed as positive allosteric modulator.
Sequence of 5-hydroxytryptamine receptor 2A (Homo sapiens) (P28223 whole entry): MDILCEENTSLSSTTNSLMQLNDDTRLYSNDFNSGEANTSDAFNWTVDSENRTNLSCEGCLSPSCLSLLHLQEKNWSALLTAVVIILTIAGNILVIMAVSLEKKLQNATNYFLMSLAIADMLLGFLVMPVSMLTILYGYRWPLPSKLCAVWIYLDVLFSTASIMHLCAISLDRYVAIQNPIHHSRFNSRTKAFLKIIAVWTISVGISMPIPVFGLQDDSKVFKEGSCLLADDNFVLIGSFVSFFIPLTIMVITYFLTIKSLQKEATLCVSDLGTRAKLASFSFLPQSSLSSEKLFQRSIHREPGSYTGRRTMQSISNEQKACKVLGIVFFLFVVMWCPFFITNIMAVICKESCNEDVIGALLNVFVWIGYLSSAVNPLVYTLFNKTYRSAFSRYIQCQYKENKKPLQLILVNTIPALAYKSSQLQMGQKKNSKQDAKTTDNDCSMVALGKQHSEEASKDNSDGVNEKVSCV

Test [2] addresses 5-hydroxytryptamine receptor 2B (Homo sapiens) (UniProt P41595). Description: Modulation of 5-HT2B receptor (unknown origin) assessed as modulation of 5-HT induced intracellular Ca2+ release by measuring maximal efficacy at 1 uM preincubated for 15 mins followed by 5-HT addition and measured by FLIPR analysis relative to control. The following applies: filed as modulator.
Test [3] addresses T1, 5-hydroxytryptamine receptor 2C (Homo sapiens) (UniProt P28335).
T1 sequence (whole entry): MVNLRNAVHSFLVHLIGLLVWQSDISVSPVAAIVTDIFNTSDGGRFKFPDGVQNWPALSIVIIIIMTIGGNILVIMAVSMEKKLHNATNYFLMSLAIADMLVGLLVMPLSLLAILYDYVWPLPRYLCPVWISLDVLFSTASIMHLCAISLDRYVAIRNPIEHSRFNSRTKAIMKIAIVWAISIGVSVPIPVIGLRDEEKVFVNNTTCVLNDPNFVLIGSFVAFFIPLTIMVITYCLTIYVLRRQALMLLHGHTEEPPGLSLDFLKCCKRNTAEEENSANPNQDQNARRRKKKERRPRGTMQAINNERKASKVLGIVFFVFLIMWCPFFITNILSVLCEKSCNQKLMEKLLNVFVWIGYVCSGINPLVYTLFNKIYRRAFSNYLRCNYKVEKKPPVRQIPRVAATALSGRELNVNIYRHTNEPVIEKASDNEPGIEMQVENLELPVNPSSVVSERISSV
As to the kind of experiment: Positive allosteric modulation of human 5-HT2C receptor stably expressed in CHO cells assessed as modulation of 5-HT induced intracellular Ca2+ release by measuring maximal efficacy at 1 uM preincubated for 15 mins followed by 5-HT addition and measured by FLIPR analysis relative to control. As to conditions: filed as positive allosteric modulator.

The test system of test [4] is Cortical neurone. Description: Induction of neurite outgrowth in Wistar rat Cortical neurons assessed as increase in neurite branching at <=10 pM incubated for 72 hrs by automated imaging based analysis.
Test [5] deals with Cortical neurone. As to the kind of experiment: Induction of neurite outgrowth in Wistar rat Cortical neurons assessed as increase in neurite number at <=10 pM incubated for 72 hrs by automated imaging based analysis.
In test [6] the test system is Cortical neurone. As to the kind of experiment: Induction of neurite outgrowth in Wistar rat Cortical neurons assessed as increase in neurite length at <=10 pM incubated for 72 hrs by automated imaging based analysis.

Sequence of 5-hydroxytryptamine receptor 2B (Homo sapiens) (P41595 whole entry): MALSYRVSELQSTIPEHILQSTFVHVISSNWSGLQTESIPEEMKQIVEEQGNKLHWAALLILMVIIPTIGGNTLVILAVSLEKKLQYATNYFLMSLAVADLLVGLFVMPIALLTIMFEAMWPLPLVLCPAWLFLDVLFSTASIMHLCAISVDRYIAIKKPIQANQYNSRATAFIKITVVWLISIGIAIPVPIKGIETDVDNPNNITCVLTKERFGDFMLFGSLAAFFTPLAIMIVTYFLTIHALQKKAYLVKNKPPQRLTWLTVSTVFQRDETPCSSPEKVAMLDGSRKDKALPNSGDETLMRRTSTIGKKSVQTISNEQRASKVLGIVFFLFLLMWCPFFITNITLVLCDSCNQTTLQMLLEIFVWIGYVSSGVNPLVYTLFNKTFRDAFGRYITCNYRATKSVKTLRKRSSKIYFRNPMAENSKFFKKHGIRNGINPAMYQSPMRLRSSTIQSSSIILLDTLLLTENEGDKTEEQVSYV

Take `O=C(NC[C@H](O)CO)c1cc(-c2ccccc2)ccn1`: the Emax in test [1] was 106%; in test [2], 115%; in test [3], 120%.

Take `CC(Cc1cnc2cc(F)ccn12)N(C)C` (stereo not drawn): in the test on Cortical neurone [4], the result was Active. Also, the result in the test with Cortical neurone [5] and with Cortical neurone [6] was inactive.

As to `COc1ccc2c3c([nH]c2c1)C[C@@H]1CCCN1CC3`, the result in the test with Cortical neurone [4], in the test on Cortical neurone [5] and in the test with Cortical neurone [6] was Active.

In the case of `COc1ccc2c3c([nH]c2c1)CCN1CCC[C@H]1C3`, the result with Cortical neurone [4], with Cortical neurone [5] and in the test on Cortical neurone [6] was Active.

As to `COc1ccc2c3c([nH]c2c1)CCN1CCC[C@@H]1C3`, the outcome with Cortical neurone [4], in the test with Cortical neurone [5] and in the test with Cortical neurone [6] was Active.

In the case of `O=C(CCCc1ccccc1)NC[C@H](O)CO`, the Emax in test [1] is 97.8%; in test [2], 106%; in test [3] it was 124%.

As to `COc1ccn2c(CC(C)N(C)C)ncc2c1` (stereo not drawn), the result with Cortical neurone [4], in the test on Cortical neurone [5] and in the test on Cortical neurone [6] was Active.

Regarding `COc1ccc2c3c([nH]c2c1)C[C@H]1CCCN1CC3`, the outcome in the test with Cortical neurone [4], in the test on Cortical neurone [5] and in the test on Cortical neurone [6] was Active.

`COc1cccc2[nH]c3c(c12)C[C@H]1CCCN1CC3`: the outcome in the test on Cortical neurone [4], in the test on Cortical neurone [5] and in the test on Cortical neurone [6] was Active.

As for `O=C(NC[C@H](O)CO)[C@@H]1C[C@H](c2ccccc2)CCN1`, the Emax in test [2] is 105%.
